According to the NIST ThermoML archive (doi:10.1021/je101256z):
Values joined by “and” are separate entries in the source; they are usually repeats but may differ in a detail not shown here. Equal entries are not always repeated. Numbers after ± are expanded uncertainties.

Conditions: Liquid, Vibrating wire viscometry

Cc1cccc2ccccc12 [1-methylnaphthalene]
298.15 K
Conditions	viscosity
200 kPa	2.9 ± 0.07 mPa·s and 2.89 ± 0.07 mPa·s
1000 kPa	2.94 ± 0.07 mPa·s and 2.93 ± 0.07 mPa·s and 2.92 ± 0.07 mPa·s
10000 kPa	3.24 ± 0.07 mPa·s
39900 kPa	4.4 ± 0.1 mPa·s and 4.41 ± 0.1 mPa·s
40000 kPa	4.42 ± 0.1 mPa·s
79900 kPa	6.65 ± 0.15 mPa·s and 6.67 ± 0.15 mPa·s
80000 kPa	6.68 ± 0.15 mPa·s and 6.65 ± 0.15 mPa·s
120100 kPa	10.17 ± 0.24 mPa·s and 10.12 ± 0.23 mPa·s

CC(C)CCCCCCCOC(=O)c1ccccc1C(=O)OCCCCCCCC(C)C
Conditions	viscosity
274.07 K, 100 kPa	606.7 ± 27 mPa·s
274.35 K, 100 kPa	588.6 ± 26 mPa·s
282.95 K, 100 kPa	270.2 ± 9.1 mPa·s
283.03 K, 100 kPa	265.9 ± 8.9 mPa·s
298.15 K, 200 kPa	87.63 ± 2 mPa·s [middle of 8 runs]
298.15 K, 10000 kPa	112.08 ± 2.7 mPa·s and 112.26 ± 2.7 mPa·s
298.15 K, 20000 kPa	143.67 ± 3.8 mPa·s and 143.41 ± 3.8 mPa·s and 143.42 ± 3.8 mPa·s
298.15 K, 40000 kPa	231.39 ± 7.2 mPa·s [middle of 6 runs]
298.25 K, 100 kPa	87.67 ± 2.1 mPa·s
305.15 K, 200 kPa	57.12 ± 1.2 mPa·s [middle of 5 runs]
305.26 K, 100 kPa	57.43 ± 1.2 mPa·s
313.15 K, 200 kPa	37.1 ± 0.76 mPa·s [middle of 5 runs]
313.15 K, 10100 kPa	46.34 ± 0.96 mPa·s and 46.33 ± 0.96 mPa·s and 46.23 ± 0.96 mPa·s
313.15 K, 20000 kPa	57.28 ± 1.2 mPa·s and 57.35 ± 1.2 mPa·s and 57.32 ± 1.2 mPa·s
313.15 K, 40000 kPa	87.15 ± 1.9 mPa·s and 87.13 ± 1.9 mPa·s and 87.03 ± 1.9 mPa·s
313.15 K, 59900 kPa	130.49 ± 3.3 mPa·s and 130.29 ± 3.3 mPa·s
313.15 K, 60000 kPa	130.33 ± 3.8 mPa·s
313.15 K, 80000 kPa	194.08 ± 5.6 mPa·s and 194.41 ± 5.7 mPa·s and 195.2 ± 5.7 mPa·s
313.27 K, 100 kPa	37.41 ± 0.78 mPa·s
327.83 K, 100 kPa	19.32 ± 0.4 mPa·s
343.15 K, 200 kPa	10.99 ± 0.23 mPa·s [middle of 5 runs]
343.15 K, 10100 kPa	13.33 ± 0.29 mPa·s and 13.35 ± 0.29 mPa·s
343.15 K, 20100 kPa	15.85 ± 0.33 mPa·s and 15.86 ± 0.33 mPa·s
343.15 K, 40000 kPa	22.04 ± 0.47 mPa·s and 22.05 ± 0.47 mPa·s
343.15 K, 80100 kPa	41.22 ± 0.89 mPa·s and 41.24 ± 0.89 mPa·s
343.15 K, 137100 kPa	95.56 ± 2.2 mPa·s and 95.61 ± 2.2 mPa·s
343.24 K, 100 kPa	11.1 ± 0.23 mPa·s
343.33 K, 100 kPa	11.09 ± 0.23 mPa·s
343.53 K, 100 kPa	11.15 ± 0.23 mPa·s
368.15 K, 300 kPa	5.65 ± 0.12 mPa·s
368.21 K, 100 kPa	5.627 ± 0.12 mPa·s
368.54 K, 100 kPa	5.577 ± 0.12 mPa·s
373.15 K, 300 kPa	5.04 ± 0.1 mPa·s and 5.05 ± 0.1 mPa·s and 4.92 ± 0.1 mPa·s
373.15 K, 20100 kPa	6.876 ± 0.14 mPa·s and 6.866 ± 0.14 mPa·s
373.15 K, 40000 kPa	9.055 ± 0.19 mPa·s and 9.075 ± 0.19 mPa·s and 9.085 ± 0.19 mPa·s
373.15 K, 80100 kPa	15.22 ± 0.32 mPa·s and 15.23 ± 0.32 mPa·s
373.15 K, 137200 kPa	30.11 ± 0.65 mPa·s and 30.12 ± 0.65 mPa·s and 30.15 ± 0.65 mPa·s
